Measured values: US6564152B2, “Pharmacophore models for, methods of screening for, and identification of the cytochrome P-450 inhibitory potency of neurokinin-1 receptor antagonists” (Pfizer Inc, priority 2000, dated 2003)
Where two headings read alike, the source gives them in different places.

Biological target: recombinant CYP2D6 (Homo sapiens, UniProt P10635)
Experiment: Bufuralol 1'-hydroxylase assay (CYP2D6) IC50 determination
[1] = CYP2D6 IC50, recombinant CYP2D6 0.1 mg/ml, bufuralol 3.4 μM, 37° C., pH 7.4, Table I
[2] = IC50 Observed, test set of 8 compounds, in vitro values as measured in Example 1, Table II

Sequence of recombinant CYP2D6 (P10635 whole entry): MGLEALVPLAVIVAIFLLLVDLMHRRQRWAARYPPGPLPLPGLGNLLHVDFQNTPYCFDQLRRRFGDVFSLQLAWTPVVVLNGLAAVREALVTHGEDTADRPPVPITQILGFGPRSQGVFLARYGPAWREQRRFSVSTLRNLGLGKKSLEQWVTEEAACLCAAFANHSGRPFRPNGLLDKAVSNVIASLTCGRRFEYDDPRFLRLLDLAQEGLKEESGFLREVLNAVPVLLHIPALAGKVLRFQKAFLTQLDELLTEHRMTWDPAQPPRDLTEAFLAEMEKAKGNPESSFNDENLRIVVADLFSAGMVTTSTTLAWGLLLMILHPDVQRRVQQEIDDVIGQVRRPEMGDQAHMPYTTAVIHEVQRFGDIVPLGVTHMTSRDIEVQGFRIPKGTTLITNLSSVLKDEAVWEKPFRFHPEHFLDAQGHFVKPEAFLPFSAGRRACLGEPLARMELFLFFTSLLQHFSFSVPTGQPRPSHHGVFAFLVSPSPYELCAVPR
Experimental: Using a bufuralol-hydroxylation as a marker for CYP2D6 catalytic activity, the inhibitory effect of various NK-1 antagonists were assessed in vitro. The inhibitor compounds of Table I were assayed for CYP2D6 activity by the following procedure.
Two separate plates were prepared for the substrate and for dilutions of inhibitor. The contents of the two plates were combined in a 1:1 ratio to make a master plate of substrate and inhibitor solutions (S/I plate). The remaining assay ingredients, a combination of CYP2D6 (0.1 mg/ml, 0.12 pmol/ml, Panvera, Madison Wis.), NADPH (1.2 mM) and buffer (100 mM sodium phosphate, pH 7.4), are prepared on ice and transferred to a polyvinyl reaction plate (RXN plate). […] The RXN plate is pre-warmed to 37° C. using a MJ Research Model PTC-100 automated thermal controller, and the reaction is initiated by addition of an aliquot from the S/I plate. The reaction is allowed to proceed at 37° C. before being terminated using 70% perchloric acid (50 μl). HPLC analysis is preceded by filtration of (150μl) using a Millipore multiscreen-MAHA mixed cellulose esters, triton free, non-sterile plate (Millipore Co., Bedford, Mass.).
The reactions were then terminated as described above and Multiscreen plates were then used to filter the samples by slowly drawing them through the filter plate by a weak vacuum and collecting them in a polypropylene 96-well plate. The plate was mixed by drawing up and expelling well contents twice with the Soken pipettor. A 20 μl volume of each sample was injected for HPLC analysis every 2.5 minutes. When required, concentrations of the inhibitor were adjusted in a repeat experiment to cover concentration ranges above and below the reported IC50 value.
The mobile phase consisted of acetonitrile and water 20/80 v/v containing triethylamine (1 ml/liter) and phosphoric acid (600 l/liter) at a flow rate of 0.5 ml/min (analytical side) and 1.8 ml/min (wash side) using a column switching format. HPLC analysis was performed with two alternating HPLC columns (column A and column B) attached to a Valco E36 valve. Between 0 and 5.2 minutes of the run time, column A analyses metabolite peak of sample #1. […] During the wash cycle, the flow to column A is increased to 1.8 ml/min. […] A Phenomex primesphere C1 8-MC, 5 μm, 30×2 mm column (Phenomenex, Torrance, Calif.) was used. The retention time of the 1′-hydroxybufuralol (carbinol) metabolite was 1.0 minute. The peak area of the carbinol metabolite was determined in the absence of inhibitor and compared to that measured in the presence of inhibitor. The percent of control values versus inhibitor concentration were fitted to a Hill equation using non-linear curve fitting methods, namely, Deltagraph (DeltaPoint, Inc., Monterey, Calif.).

COc1ccc(OC)c(CN[C@H]2CCCN[C@H]2c2ccccc2)c1 [Compound X]
IC50 [1]: 0.37 µM

FC(F)(F)c1cc(CO[C@H]2OCCN(Cc3nnc[nH]3)[C@H]2c2ccccc2)cc(C(F)(F)F)c1 [XXIII]
IC50 [1]: 8.8 µM

Clc1ccccc1CN[C@@H]1C2C3CCCC2CN(C3)[C@@H]1C(c1ccccc1)c1ccccc1 [XI]
IC50 [1]: 0.016 µM | IC50 [2]: 0.016 µM

C[C@@H](O[C@H]1OCCN(Cc2n[nH]c(=O)[nH]2)[C@H]1c1ccc(F)cc1)c1cc(C(F)(F)F)cc(C(F)(F)F)c1 [Compound XXI]
IC50 [1]: 18.4 µM

c1ccc(CN[C@@H]2C3CC4CCC(C3)N4[C@@H]2C(c2ccccc2)c2ccccc2)cc1 [VI]
IC50 [1]: 0.013 µM | IC50 [2]: 0.013 µM

COc1ccccc1CN[C@@H]1[C@H]2CCC[C@H]2N[C@@H]1c1ccccc1 [IX]
IC50 [1]: 0.13 µM

COc1ccc(-n2nnnc2C(F)(F)F)cc1CN[C@H]1CCCN[C@H]1c1ccccc1 [XXVI]
IC50 [1]: 0.53 µM

COc1ccccc1CN[C@@H]1C2CCN(CC2)[C@@H]1C(c1ccccc1)c1ccccc1 [III]
IC50 [1]: 0.17 µM

Clc1ccccc1CN[C@@H]1C2CCN(CC2)[C@@H]1C(c1ccccc1)c1ccccc1 [I]
IC50: 0.059 µM

COc1ccccc1CN[C@@H]1CCCC[C@@H]1C(c1ccccc1)c1ccccc1 [II]
IC50 [1]: 0.016 µM | IC50 [2]: 0.016 µM

COc1ccccc1CN[C@@H]1C2C3CCCC2CN(C3)[C@@H]1C(c1ccccc1)c1ccccc1 [XII]
IC50 [1]: 0.0067 µM

O=c1[nH]nc(CN2CCO[C@H](OCc3cc(C(F)(F)F)cc(C(F)(F)F)c3)[C@@H]2c2ccccc2)[nH]1 [Compound XXIV]
IC50 [1]: 7.1 µM | IC50 [2]: 7.1 µM

CC(C)Oc1ccccc1CN[C@H]1CCCN[C@H]1c1ccccc1 [XIV]
IC50 [1]: 0.038 µM | IC50 [2]: 0.038 µM

COc1ccccc1CN[C@@H]1C2CC3CCC(C2)N3[C@@H]1C(c1ccccc1)c1ccccc1 [V]
IC50 [1]: 0.041 µM

FC(F)Oc1ccccc1CN[C@H]1CCCN[C@H]1c1ccccc1 [XVI]
IC50 [1]: 0.074 µM

CCOc1ccc(OC(F)(F)F)cc1CN[C@H]1CCCN[C@H]1c1ccccc1 [XVIII]
IC50 [1]: 0.045 µM

COc1ccccc1CN[C@@H]1C2CC3CCCC(C2)N3[C@@H]1C(c1ccccc1)c1ccccc1 [VIII]
IC50 [1]: 0.022 µM

COc1ccccc1[C@H]1CC[C@]2(CCCN[C@@H]2c2ccccc2)NC1 [Compound XX]
IC50 [1]: 0.021 µM

COc1ccc(-n2cnnn2)cc1CN[C@H]1CCCN[C@H]1c1ccccc1 [XXV]
IC50 [1]: 0.32 µM | IC50 [2]: 0.32 µM

FC(F)(F)Oc1ccccc1CN[C@H]1CCCN[C@H]1c1ccccc1 [XVII]
IC50 [1]: 0.04 µM

Clc1ccccc1CN[C@@H]1C2CC3CCC(C2)N3[C@@H]1C(c1ccccc1)c1ccccc1 [VII]
IC50 [1]: 0.065 µM

CC(C)Oc1ccc(OC(F)(F)F)cc1CN[C@H]1CCCN[C@H]1c1ccccc1 [XIX]
IC50: 0.047 µM

COc1ccccc1CC(=N)N1C[C@H]2C(=O)CCC(c3ccccc3)(c3ccccc3)[C@H]2C1 [XIII]
IC50 [1]: 0.013 µM

COc1ccccc1CN[C@H]1CCCN[C@H]1c1ccccc1 [IV]
IC50 [1]: 0.2 µM | IC50 [2]: 0.021 µM
